In patent US10501458B2, “Substituted bicyclic fused ring compounds as indoleamine-2,3-dioxygenase inhibitors” (Merck Sharp & Dohme Corp., priority 2015, dated 2019):

Legend:
IDO1 [1] = target: T1, IDO1 (Homo sapiens (Human), UniProt P14902); assay: IDO1 HEK293 Cellular Assay; type: cell-based; conditions: HEK293 cells transfected with Flag-IDO1, 200 μM L-Tryptophan, 20-24 hours; for IC50: read-out: HEK293 cell, pIC50 (converted)
Method: IDO1 HEK293 Cellular Assay
Compounds to be tested were serially diluted in ten 3-fold steps in DMSO starting from 10 mM DMSO stocks. Compound dilutions or DMSO alone were then dispensed from the dilution plate into a Greiner black 384-well assay plate (catalog #781086) using an Echo 550 acoustic liquid handler (Labcyte).
HEK293 cell pellets were resuspended to 5×10^5 cells/mL in complete HEK293 culture media (89% DMEM, 10% FBS, 1% penicilllin/streptomycin). Suspended cells (2 mL) were dispensed into each well of a 6-well Corning plate (Catalog#3516). Cells were allowed to attach and were incubated for 20 hours at 37 degrees Celsius in a 5% CO2 incubator. Flag-IDO1 vector (Genscript True ORF Gold, 2 ug) in 150 uL of Opti-MEM medium was added to each well of a Corning 24 well plate (Cat#3527) and incubated for 5 minutes at room temperature. To each well of the 24-well plate was added 150 μL Lipofectamine 2000 (Gibco) and the plate incubated at room temperature for 20-30 minutes. To each well of attached cells in the 6-well plate, 250 μL of the transfection mix from the 24well plate was gently added to each well and IDO1 protein was allowed to express for 24-30 hours at 37 degrees Celsius in a 5% CO2 incubator.
Media was removed from the cells which were then washed with 2 mL Dulbecco's phosphate-buffered saline (DPBS). After removal of DPBS, 0.5 mL of TrypLE (Gibco) was added and incubated at 5 minutes until cells lift from the surface of the wells. Complete HEK293 culture media (4 mL) was added to each well and cells were collected and pooled into a conical tube. Cells were pelleted at 200×g for 5 minutes and resuspended in an equal volume of complete DMEM medium. Cells were diluted to 4×10^5 cells per mL in complete HEK293 media. L-Tryptophan was added to added to give a final concentraiton of 200 μM. The diluted transfected cells (50 μL) or nontransfected cells (50 μL) were dispensed into wells of Greiner black 384-well assay plates (catalog #781086) containing previously diluted compounds. The plate is briefly mixed and centrifuged at 200×g for 10 seconds to collect cells at the bottom of the plate. Plates were covered and incubated for 20-24 hours at 37 degrees C. in a 5% CO2 incubator. Afterwards 10 μL of 0.5 M methyl isonipecotate in dimethyl sulfoxide was added to each well, mixed, sealed, and centrifuged at 500 rpm for 10 seconds. Plates were incubated at 37 degrees in a 5% CO2 incubator overnight to develop fluoresence. The plates are allowed to cool and then centrifuged for 1 minute at 1000×g. The resulting fluoresence was measured in an Envision plate reader (Perkin Elmer) with a 400/25 nm excitation filter and an 510/20 nm emission filter.
The fluoresence intensity of each well was corrected for the background observed in wells with untransfected cells and was expressed as a fraction of the intensity observed in wells of IDO1 transfected cells and DMSO only. Potencies were calculated by linear least squares fit to the four parameter logistic IC50 equation.

IDO [2] = target: T2, IDO (Homo sapiens (Human), UniProt P14902); assay: SKOV3 kynurenine cell-based assay (IDO induced by IFN-γ); conditions: SKOV3 human ovarian adenocarcinoma cells, 500 ng/ml IFN-γ, 500 μM L-tryptophan, 48 hours
T2 sequence (P14902 whole entry): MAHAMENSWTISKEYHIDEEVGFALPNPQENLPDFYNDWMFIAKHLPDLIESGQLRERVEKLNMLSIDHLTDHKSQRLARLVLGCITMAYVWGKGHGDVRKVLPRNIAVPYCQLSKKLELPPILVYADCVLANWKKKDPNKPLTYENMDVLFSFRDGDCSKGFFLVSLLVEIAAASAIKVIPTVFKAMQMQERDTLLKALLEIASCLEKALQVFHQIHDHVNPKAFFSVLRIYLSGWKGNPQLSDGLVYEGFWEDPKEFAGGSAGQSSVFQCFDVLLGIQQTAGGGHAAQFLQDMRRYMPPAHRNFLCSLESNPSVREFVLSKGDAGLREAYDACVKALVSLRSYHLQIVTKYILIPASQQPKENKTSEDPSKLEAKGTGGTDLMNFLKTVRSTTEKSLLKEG
Method: (§1) Exemplary compounds of the invention were prepared, and tested to determine their effect as TDO and/or IDO inhibitors. Two different assays were employed: 1. a cell-based assay for detecting the effect of test compounds on kynurenine production in two different cancer cell types. This assay utilised cancer cells which expressed either TDO or IDO and as such was used as a means of testing compound activity at these two enzymes in a cell-based context. 2. a TDO and IDO biochemical coupled assay which utilised recombinantly produced and purified TDO and IDO enzymes in combination with the enzyme formamidase. This coupled enzyme system allowed conversion of N-formylkynurenine produced by TDO or IDO activity to kynurenine which was then quantified by fluorescence following addition of Erhlich's Reagent The protocols for these are set out below.
(§2) Cell Based Assay for Detection of Kynurenine Produced by TDO and/or IDO
(§3) A172 (human glioblastoma) and SKOV3 (human ovarian adenocarcinoma) cells were seeded in a 96 well plate at 30,000 or 40,000 cells per well respectively in phenol red-free RPMI supplemented with 10% FCS, 2 mM L-glutamine and 500 μM L-tryptophan. IDO expression was induced in the SKOV3 cells by the addition of 500 ng/ml IFN-γ. Cells were incubated at 37° C. with or without the addition of test compound. After 48 hours, the cells were removed by centrifugation and Erhlich's reagent was added to the supernatant. The Erhlich's reagent was incubated for 5 minutes before the absorbance was read at 490 nm.

TDO [3] = target: T3, TDO (Homo sapiens (Human), UniProt P48775); assay: A172 kynurenine cell-based assay; conditions: A172 human glioblastoma cells, 500 μM L-tryptophan, 48 hours
T3 sequence (P48775 whole entry): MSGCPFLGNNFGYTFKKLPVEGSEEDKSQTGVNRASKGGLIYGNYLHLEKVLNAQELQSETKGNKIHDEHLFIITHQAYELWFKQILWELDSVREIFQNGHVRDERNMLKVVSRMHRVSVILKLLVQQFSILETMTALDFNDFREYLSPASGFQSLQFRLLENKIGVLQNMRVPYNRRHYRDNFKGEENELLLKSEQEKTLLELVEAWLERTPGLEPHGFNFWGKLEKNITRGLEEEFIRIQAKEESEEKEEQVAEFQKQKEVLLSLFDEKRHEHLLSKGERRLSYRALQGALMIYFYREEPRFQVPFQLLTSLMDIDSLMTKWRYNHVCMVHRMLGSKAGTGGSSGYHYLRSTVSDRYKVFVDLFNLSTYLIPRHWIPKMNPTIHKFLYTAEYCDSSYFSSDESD
Method: as §1, §2, §3

IDO1 [4] = target: T1, IDO1; assay: IDO1 Enzyme Assay; type: biochemical; conditions: HIS-tagged recombinant IDO1, tryptophan substrate, fluorescence readout; for IC50: read-out: IDO1 Enzyme, pIC50 (converted)
Method: Compounds to be tested were serially diluted in ten 3-fold steps in DMSO starting from 10 mM DMSO stocks. Compound dilutions or DMSO alone were then dispensed from the dilution plate into a Greiner black 384-well assay plate (catalog #781086) using an Echo 555 acoustic liquid handler (Labcyte).
HIS-tagged IDO1 protein was recombinantly expressed in Escherichia coli using ZYP5052 autoinduction media supplemented with 500 μM delta aminolevulinic acid for 48 hours at 16 degrees Celsius. IDO1 protein was purified using Ni^2+-affinity resin and size exclusion chromatography. Purified protein was then diluted in assay buffer (50 mM Tris pH 7.0, 1% glycerol, 20 uM methylene blue, 0.05% Tween-20, 20 mM sodium ascorbate, 100 units/mL catalase to obtain a final IDOL concentration of 40 nM. IDOL solution ([…]) or buffer alone ([…]) were dispensed to wells of the assay plate using a BioRAPTR liquid dispenser (Beckman Coulter). Assay plates containing compound and IDO1 enzyme were incubated at room temperature for 30 minutes. Afterwards, 10 μL of 400 μM tryptophan in assay buffer were added to each well of the assay plate using a BioRAPTR liquid dispenser. Plates were incubated at room temperature for 60 minutes and reactions were quenched by addition of 10 μL of 0.5 M methyl isonipecotate in dimethyl sulfoxide. Plates were sealed and incubated at 37 degrees Celsius for 4 hours or 50 degrees Celsius for 2 hours. The plates are allowed to cool and then centrifuged for 1 minute at 1000×g. The resulting fluoresence was measured in an Envision plate reader (Perkin Elmer) with a 400/25 nm excitation filter and an 510/20 nm emission filter.
Potencies were calculated by linear least squares fit to the four parameter logistic IC50 equation.

TDO [5] = target: T3, TDO; assay: hTDO biochemical coupled assay; conditions: 330 μM L-tryptophan, 17 minutes at room temperature
Method: as §1
(§4) TDO and IDO Biochemical Coupled Assay
(§5) Recombinant human IDO or TDO was incubated in 50 mM KPO4 (pH 7.0), 0.5 mM EGTA, 0.5 mM EDTA, 0.05% Triton™ X100, 20 mM ascorbate, 10 μM methylene blue, 500 U/ml catalase, 50 μg/ml KynB (kynurenine formamidase). TDO assays were carried out in the presence of 330 μM L-tryptophan, while IDO assays had the addition of 45 μM L-tryptophan. After incubation for 17 minutes at room temperature the reactions were stopped by the addition of Erhlich's reagent and incubated at room temperature for 5 minutes before the fluorescence was read (Ex 475, Em530).

IDO [6] = target: T2, IDO; assay: hIDO biochemical coupled assay; conditions: 45 μM L-tryptophan, 17 minutes at room temperature
Method: as §1, §4, §5

T1 sequence (P14902 whole entry): as the sequence (P14902 whole entry) above

Structure (SMILES) | SKOV3 Kynurenine cell based assay, pIC50 (IDO [2]) | A172 Kynurenine cell based assay, pIC50 (TDO [3]) | IC50 (IDO1 [1]) | IC50 (IDO1 [4]) | also measured
CC1(C)CN(c2cc(Br)cc3cncn23)CCN1S(C)(=O)=O [Compound 1021] | +++ (+++ = pIC50 ≥5.50) | +++ (+++ = pIC50 ≥5.50) | – | – | HEK293 cell, pIC50 (IDO1 [1]): 6.7; IDO1 Enzyme, pIC50 (IDO1 [4]): 6.8
CNC(=O)c1c(C)noc1C1CCN(c2cc(C(F)(F)F)cc3cncn23)CC1 [Compound 1036, N,3-dimethyl-5-{1-[7-(trifluoromethyl)imidazo[1,5-a]pyridin-5-yl]piperidin-4-yl}isoxazole-4-carboxamide] | – | – | 2510 nM | 398 nM | –
Cn1c(N)c(N2CCN(c3cc(C(F)(F)F)cc4cncn34)CC2)c(=O)n(C)c1=O [Compound 1037, 6-amino-1,3-dimethyl-5-{4-[7-(trifluoromethyl)imidazo[1,5-a]pyridin-5-yl]piperazin-1-yl}pyrimidine-2,4(1H,3H)-dione] | – | – | 3980 nM | 794 nM | –
Cc1noc(C2CCN(c3cc(C(F)(F)F)cc4cncn34)CC2)c1C(N)=O [Compound 1035, 3-methyl-5-{1-[7-(trifluoromethyl)imidazo[1,5-a]pyridin-5-yl]piperidin-4-yl}isoxazole-4-carboxamide] | – | – | 501 nM | 251 nM | –
CC(=O)N1CCN(c2cc(C(F)(F)F)cc3cncn23)CC1 [Compound 1018] | + (+ = pIC50 4.00-4.49) | ++ (++ = pIC50 4.50-5.49) | – | – | hTDO biochemical assay, pIC50 (TDO [5]): ++ (++ = pIC50 4.50-5.49); hIDO biochemical assay, pIC50 (IDO [6]): ++ (++ = pIC50 4.50-5.49)
FC(F)(F)c1cc(N2CCC(n3cnnn3)CC2)n2cncc2c1 [Compound 1038, 5-[4-(1H-tetrazol-1-yl)piperidin-1-yl]-7-(trifluoromethyl)imidazo[1,5-a]pyridine] | – | – | 794 nM | 1000 nM | –
